The text below walks through data of patent US20200087314A1, “HISTONE DEACETYLASE INHIBITORS” (BIOMARIN PHARMACEUTICAL INC., priority 2016, published 2020).

This data set has as its system Frataxin (FXN) mRNA expression. Put plainly: Effect of HDAC inhibitors on frataxin (FXN) mRNA expression in iPSC derived neuronal cells (qRT-PCR). Type of data set: cell-based. The settings on record: iPSC derived neuronal cells differentiated 16 days, compound incubated 24 h. The procedure:
Effect of HDAC Inhibitors on Frataxin (FXN) mRNA Expression
Method: mRNA quantification of compound-treated iPSC derived neuronal cells Neuronal stem cells were cultured in Neurobasal A medium (Life technologies #10888022) supplemented with N2, B27 (Life technologies #17502-048 and #17504-044), L-glutamine (Life technologies #25030081), supplemented with 20 ng/ml EGF (R&D Systems #236-EG) and 20 ng/ml bFGF (BioPioneer # HRP-0011). Neuronal differentiation was initiated by removing growth factors and culturing cells in Neurobasal A with N2 and B27. Cells were allowed to differentiate for 16 days. HDAC inhibitory compound was then added and incubate for 24 h. RNA isolation was performed using the RNeasy Plus mini kit (QIAgen #74134) using a QIAcube instrument per manufacturer's instructions. qRT-PCR was performed using qScript One-Step SYBR Green qRT-PCR Kit (Quanta Biosciences 170-8893BR) with the following conditions: 20 minutes at 50° C., 5 minutes at 95° C., and then 40 cycles of 20 seconds at 95° C., 20 seconds at 55° C., 30 seconds at 72° C. The primer sequences to detect expression of FXN were: 5′-[…]-3′ and 5′-[…]-3′.
Data for additional compounds for iPSC fold inductions and cLogP are shown in Table 4 The ranges reported for cLogP refer to the following. A<1, 1<B<2, 2<C<3, 3<D<5, E>5. NA refers to “not available.”
(Real-time PCR tracks product formation cycle by cycle.)

In the case of `C[C@@H]1CN(Cc2ccc(C(=O)Nc3ccccc3N)cc2)[C@@H](C)CN1CC1CC1` (racemic) [Compound 477, N-(2-aminophenyl)-4-(((2S,5R)-4-(cyclopropylmethyl)-2,5-dimethylpiperazin-1-yl)methyl)benzamide], the “Fold Induction” value is listed as 1.8.
The result for `C[C@@H]1CN(Cc2ccc(C(=O)Nc3ccccc3N)cc2)[C@@H](C)CN1CC(C)(C)O` (racemic) [Compound 478, N-(2-aminophenyl)-4-(((2S,5R)-4-(2-hydroxy-2-methylpropyl)-2,5-dimethylpiperazin-1-yl)methyl)benzamide] reads 2.1.
Regarding `CC(C)(O)CN1CCN(Cc2ccc(C(=O)Nc3ccccc3N)cc2)CC1.Cl.Cl.Cl` [Compound 146, N-(2-aminophenyl)-4-((4-(2-hydroxy-2-methylpropyl)piperazin-1-yl)methyl)benzamide], the “Fold Induction” value came out at 1.8.
As to `Cl.Cl.Cl.Nc1ccccc1NC(=O)c1ccc(CN2CCN(CC3CC3)CC2)cc1` [Compound 147, N-(2-aminophenyl)-4-((4-(cyclopropylmethyl)piperazin-1-yl)methyl)benzamide], the “Fold Induction” value worked out at 1.8.
In the case of `CC(C)(O)CN1CCC(Cc2ccc(C(=O)Nc3ccc(F)cc3N)cc2)CC1` [Compound 161, N-(2-amino-4-fluorophenyl)-4-((1-(2-hydroxy-2-methylpropyl)piperidin-4-yl)methyl)benzamide], the “Fold Induction” value worked out at 1.2.
As to `CC(C)(C)CN1CCC(Cc2ccc(C(=O)Nc3ccc(F)cc3N)cc2)CC1` [Compound 162, N-(2-amino-4-fluorophenyl)-4-((1-neopentylpiperidin-4-yl)methyl)benzamide], the “Fold Induction” value is 1.3.
Then `Nc1cc(F)ccc1NC(=O)c1ccc(CC2CCN(CC3CC3)CC2)cc1` [Compound 163, N-(2-amino-4-fluorophenyl)-4-((1-(cyclopropylmethyl)piperidin-4-yl)methyl)benzamide], with 1.2.
`Nc1cc(F)ccc1NC(=O)c1ccc(CC2CN(CC3CC3)C2)cc1` [Compound 169, N-(2-amino-4-fluorophenyl)-4-((1-(cyclopropylmethyl)azetidin-3-yl)methyl)benzamide]: the “Fold Induction” value came out at 1.3.
The result for `Cl.Cl.Nc1ccccc1NC(=O)c1ccc(CN2CCCCC2)cc1` [Compound 171, N-(2-aminophenyl)-4-(piperidin-1-ylmethyl)benzamide] reads 0.9; that for `CC1(C)CCN(Cc2ccc(C(=O)Nc3ccccc3N)cc2)CC1.Cl.Cl` [Compound 172, N-(2-aminophenyl)-4-((4,4-dimethylpiperidin-1-yl)methyl)benzamide], 1.4.
On to `Cl.Cl.Nc1ccccc1NC(=O)c1ccc(CN2CCC3(CCCCC3)CC2)cc1` [Compound 174, 4-((3-azaspiro[5.5]undecan-3-yl)methyl)-N-(2-aminophenyl)benzamide], for which the “Fold Induction” value came out at 1.1.
The result for `Nc1ccccc1NC(=O)c1ccc(CN2CCC3(CC2)COC3)cc1` [Compound 175, 4-((2-oxa-7-azaspiro[3.5]nonan-7-yl)methyl)-N-(2-aminophenyl)benzamide] reads 1.5.
As to `Nc1ccccc1NC(=O)c1ccc(CN2CCC2)cc1` [Compound 176, N-(2-aminophenyl)-4-(azetidin-1-ylmethyl)benzamide], the “Fold Induction” value was 1.5.
The result for `CC(C)(O)CC1CCN(Cc2ccc(C(=O)Nc3ccccc3N)cc2)CC1` [Compound 181, N-(2-aminophenyl)-4-((4-(2-hydroxy-2-methylpropyl)piperidin-1-yl)methyl)benzamide] reads 1.5; that for `Nc1ccccc1NC(=O)c1ccc(CN2CC3(C2)CN(CC2CC2)C3)cc1` [Compound 238, N-(2-aminophenyl)-4-((6-(cyclopropylmethyl)-2,6-diazaspiro[3.3]heptan-2-yl)methyl)benzamide], 1.5; that for `Nc1ccccc1NC(=O)c1ccc(CN2CC3(CNC3)C2)cc1` [Compound 241, 4-((2,6-diazaspiro[3.3]heptan-2-yl)methyl)-N-(2-aminophenyl)benzamide], 1.9.
`Nc1ccccc1NC(=O)c1ccc(CC2CCN(CC34CC5CC(CC(C5)C3)C4)CC2)cc1` [Compound 354, 4-((1-(((3r,5r,7r)-adamantan-1-yl)methyl)piperidin-4-yl)methyl)-N-(2-aminophenyl)benzamide]: the “Fold Induction” value amounted to 1.9.
Then `CC1(C)CC(Cc2ccc(C(=O)Nc3ccccc3N)cc2)CCN1CC1CC1` (stereo not shown) [Compound 356, N-(2-aminophenyl)-4-((1-(cyclopropylmethyl)-2,2-dimethylpiperidin-4-yl)methyl)benzamide], with 2.0; and `CC(C)(O)CN1CCC(Cc2ccc(C(=O)Nc3ccccc3N)cc2)CC1(C)C` (stereo not shown) [Compound 357, N-(2-aminophenyl)-4-((1-(2-hydroxy-2-methylpropyl)-2,2-dimethylpiperidin-4-yl)methyl)benzamide], with 1.7.
On to `CC1(C)CC(Cc2ccc(C(=O)Nc3ccccc3N)cc2)CCN1` (stereo not shown) [Compound 359, N-(2-aminophenyl)-4-((2,2-dimethylpiperidin-4-yl)methyl)benzamide], for which the “Fold Induction” value was determined as 1.9.
As for `CC(C)(O)CN1CCCC(Cc2ccc(C(=O)Nc3ccccc3N)cc2)CC1.Cl.Cl` (stereo not shown) [Compound 379, N-(2-aminophenyl)-4-((1-(2-hydroxy-2-methylpropyl)azepan-4-yl)methyl)benzamide dihydrochloride], the “Fold Induction” value was found to be 2.1.
Then `CC(C)=CC1CCN(Cc2ccc(C(=O)Nc3ccccc3N)cc2)CC1` [Compound 472, N-(2-aminophenyl)-4-((4-(2-methylprop-1-en-1-yl)piperidin-1-yl)methyl)benzamide], with 1.5; and `C[C@@H]1CN(Cc2ccc(C(=O)Nc3ccccc3N)cc2)CCN1CC1CC1` [Compound 479, (R)-N-(2-aminophenyl)-4-((4-(cyclopropylmethyl)-3-methylpiperazin-1-yl)methyl)benzamide], with 2.2.
`C[C@@H]1CN(Cc2ccc(C(=O)Nc3ccccc3N)cc2)CCN1CC(C)(C)O` [Compound 480, (R)-N-(2-aminophenyl)-4-((4-(2-hydroxy-2-methylpropyl)-3-methylpiperazin-1-yl)methyl)benzamide]: the “Fold Induction” value is reported as 2.0.
Then `C[C@H]1CN(CC2CC2)CCN1Cc1ccc(C(=O)Nc2ccccc2N)cc1` [Compound 481, (S)-N-(2-aminophenyl)-4-((4-(cyclopropylmethyl)-2-methylpiperazin-1-yl)methyl)benzamide], with 1.6; and `C[C@H]1CN(CC(C)(C)O)CCN1Cc1ccc(C(=O)Nc2ccccc2N)cc1` [Compound 482, (S)-N-(2-aminophenyl)-4-((4-(2-hydroxy-2-methylpropyl)-2-methylpiperazin-1-yl)methyl)benzamide], with 1.7; and `CC1(C)CN(Cc2ccc(C(=O)Nc3ccccc3N)cc2)CCN1CC1CC1` [Compound 483, N-(2-aminophenyl)-4-((4-(cyclopropylmethyl)-3,3-dimethylpiperazin-1-yl)methyl)benzamide], with 1.7.
The result for `CC(C)(O)CN1CCN(Cc2ccc(C(=O)Nc3ccccc3N)cc2)CC1(C)C` [Compound 484, N-(2-aminophenyl)-4-((4-(2-hydroxy-2-methylpropyl)-3,3-dimethylpiperazin-1-yl)methyl)benzamide] reads 1.6.
